Legend:
[1] = Babbedge et al. 1993; Moore et al. 1993; cited from earlier work
[2] = Yoshida et al. 1994; cited from earlier work
Male Sprague-Dawley rats [3] = assay: Lactate and lesion volume by magnetic resonance after intrastriatal malonate; format: in vivo, rat
Protocol: Localized Lactate Measurements by Magnetic Resonance Spectroscopy. The effects on lactate production of intrastriatal injections of 3 μmol malonate and the influence of pretreatment with 7-NI on these lactate levels were assessed in vivo using magnetic resonance imaging (Brouillet et al. (1993) J. Neurochem. 60:356-359). Male Sprague-Dawley rats weighing 275-325 g received either i.p. injections of peanut oil (vehicle) or 50 mg/kg 7-NI (n=5-6 per group). […] Rats were imaged under halothane/N2 O/O2 anesthesia on a 4.7 Tesla GE Omega CSI Imager using a 30 mm bird cage coil at 1.5-2 h after striatal malonate injections. […] Lesion volumes were measured using a T2 -weighted sequence (TR/TE 3200/80 ms) with slice thickness of 2.5 mm, and a field of view of 40 mm. Lesion volumes were measured using a criterion for abnormal tissue of being 2 standard deviations above the mean signal intensity in the contralateral unaffected striatum. Lactate was measured using double phase encoding three dimensional (x,y,ω) water suppressed chemical shift imaging sequence with an inversion pulse for lipid suppression described earlier (Jenkins et al. (1993) Neurology 43:2689-2695). […] Lactate concentrations were measured in the lesioned striatum by delineating the striatum in the water image and overlaying the contours on the lactate images. […]

Male Sprague Dawley rats = assay: Salicylate hydroxyl trapping and 3-nitrotyrosine after systemic 3-NP; format: in vivo, rat; conditions: 3-NP 20 mg/kg i.p. every 12 h x3; 7-NI 50 mg/kg
Protocol: Salicylate assay and 3-nitrotyrosine measurements. The salicylate hydroxyl trapping method of Floyd et al. ((1984) supra, Cao et al. (1988) Neurosci. Lett. 88:233-238, and Hall et al. (1993) J. Neurochem. 60:588-594) was used for measuring ^.cndot. OH radicals in striatal tissue following i.p. administration of 3-NP. Male Sprague Dawley rats weighing 125-150 g (n-10 per group) were injected i.p. every 12 h for 3 times with either (i) saline, (ii) 20 mg/kg of 3-NP and peanut oil vehicle, or (iii) 20 mg/kg of 3-NP and 7-NI dissolved in peanut oil. […] Salicylate and its metabolites 2,3 and 2,5 dihydroxybenzoic acid (DHBA) were quantified by HPLC with 16-electrode electrochemical detection (Beal et al. (1990) supra). Salicylate, 2,3 and 2,5 DHBA, tyrosine and 3-nitrotyrosine were measured electrochemically by oxidation at 840, 240, 120 mV, 600 mV, and 840 mV, respectively. The data were expressed as the ratio of 2,3 and 2,5 DHBA to salicylate and 3-nitrotyrosine concentrations for differing brain concentrations of salicylate and tyrosine, which could be a consequence of impairment of the blood-brain barrier (salicylate) or neuronal loss during treatment (tyrosine).

Male Sprague-Dawley rats [4] = assay: Striatal lesions produced by intrastriatal malonate (TTC staining); format: in vivo, rat; conditions: 7-NI 25 and 50 mg/kg i.p. 0.5 h before malonate
Protocol: Stereotaxic Lesion Technique. Male Sprague-Dawley rats (Charles River, Cambridge, Mass.) weighing 300-325 g were anesthetized with pentobarbital (50 mg/kg i.p.) and positioned in a David Kopf stereotaxic instrument with the incisor bar set at 3.3 mm below the intermural line. Malonate, NMDA, KA, and AMPA were dissolved in 0.1M phosphate-buffered saline (pH, 7.4). Intrastriatal injections were made with a 10 μl Hamilton syringe fitted with a 30 gauge blunt-tipped needle into the left striatum at the coordinates 0.5 mm anterior bregma, 2.6 mm lateral to the midline and 5 mm ventral to the dura. Injection volumes were 1 μl (3 μmol malonate). […]
Quantification of Lesion Volume. […] (Bederson et al. (1986) Stroke 17:1304-1308.) The lesioned area (noted by pale staining) was measured on the posterior surface of each section using an Apple Macintosh.COPYRGT. based image analysis system (Sony color video camera, Software: ColorSnap.COPYRGT. (Computer Friends Inc., Portland, Oreg.) and IPLab Spectrum.COPYRGT. (Signal Analytics, Vienna, Va.)). The lesions were evaluated by an experienced histologist, who verified the reliability of the TTC measurements in animals injected with malonate on adjacent sections stained with either TTC or Nissl stain (Schulz et al. (1995) J. Neurochem 64:in press).

## O=[N+]([O-])c1cccc2cn[nH]c12 [7-NI, 7-nitroindazole]
[1]
  effect on blood pressure in vivo: no effect
[2]
  efficacy against focal ischemic lesions in vivo: efficacious
Male Sprague-Dawley rats [3]; 7-NI 50 mg/kg i.p. 0.5 h before striatal lesion, 1.5 h after malonate
  malonate-induced increase in striatal lactate concentrations (MR spectroscopy): significantly attenuated
Male Sprague-Dawley rats [3]; 2 h after striatal malonate, n=6, vehicle 84.01±16.2, p<0.01
  lesion volume by T2-weighted MR imaging: 34.9±27.7 mm^3
Male Sprague Dawley rats
  3-NP-induced increase of 2,3 and 2,5 DHBA: significantly attenuated
  3-NP-induced increase of 3-nitrotyrosine in striatum: significantly attenuated
Male Sprague-Dawley rats [4]
  striatal lesion produced by 3 μmol malonate: significantly and dose dependently attenuated

Reference: patent US5849782A, “Methods of inhibiting neurodegenerative diseases” (The General Hospital Corporation, priority 1996, dated 1998)
